Results reported in a melting point compilation (Tetko et al.; mined from patent text by program, amines drawn as free bases though some values may be those of a salt).

First: CC1C2C(C(=O)N1Cc1ccc3c(c1)OCO3)C(c1ccc(Br)cc1)N(C)C2(C)C (stereo not drawn)
Second: CS(=O)c1ccc(C2=C(c3cccc(F)c3)C(=O)C(C)(C)O2)cc1F (stereo not drawn)
The melting point of the first is lower: 142 to 144 °C for the first, 148 to 149 °C for the second.

First: C[C@@H]1CCN(C(=O)C(C)(C)C)[C@@H](C(=O)O)C1
Second: C[C@H](NC(=O)OC(C)(C)C)C(=O)Oc1c[nH]c2ccccc12
The melting point of the first is lower: 87 to 90 °C for the first, 158 °C for the second.

First: C=Cc1ccc(C(=O)NC(C#N)n2cccn2)cc1 (stereo not drawn)
Second: COC(=O)[C@H](O)[C@@H](N)c1ccc(C(N)=O)cc1
The melting point of the first is lower: 159 to 161 °C for the first, 206 °C for the second.

First: O=C(N[C@H](Cc1ccc(CC(F)(F)C(F)(F)F)cc1)[C@@H](O)c1cccc(Cl)c1)c1ccc(F)c2ccccc12 (racemic)
Second: CN1CC(C(=O)N(C)C(Cc2ccc(Cl)cc2)Cc2ccc(Cl)cc2)=C(O)C1=O
The melting point of the first is higher: 191 to 192 °C for the first, 152 to 154 °C for the second.

Compared with `Nc1ccc(S(=O)(=O)Nc2ccccc2C(=O)NCCCn2ccnc2)cc1`, `Cc1ccc(S(=O)(=O)N2CCC[C@H](CBr)c3ccccc32)cc1` is lower in melting point: 171 to 175 °C for the first, 110 to 111 °C for the second.

First: COc1nc(-n2cc(C(=O)O)c(=O)c3cc(F)c(N4CC(N)C4)c(Cl)c32)c(F)cc1F
Second: O=C(O)c1ccc(COCc2csc3nc(C(=O)NCc4ccc(F)c(F)c4)[nH]c(=O)c23)cc1
The melting point of the first is lower: 171 to 175 °C for the first, 249 to 251 °C for the second.

First: COc1cccc2c(CCCCNC3COc4c(F)ccc(C(N)=O)c4C3)coc12 (stereo not drawn)
Second: COc1cccc2c(CCCCN(CC3CC3)C3COc4c(F)ccc(C(N)=O)c4C3)coc12 (stereo not drawn)
The melting point of the first is higher: 138 to 141 °C for the first, 114 to 120 °C for the second.

First: CCN(CC)c1ccc(-n2c(CC(=O)O)c(C(=O)O)c3cc(Oc4ccc(C(F)(F)F)cc4)ccc32)cc1
Second: CCOc1ccc(CC(=O)O)cc1OCCCc1cn(-c2ccc(C(F)(F)F)cn2)nc1C(C)C
The melting point of the first is higher: 234 to 236 °C for the first, 116 to 117 °C for the second.

First: Fc1ccc(-c2cc(Cl)ncn2)c(F)c1
Second: O=C(O)CCc1cccc(-c2nc(=O)c3ccc(F)cc3s2)n1
The melting point of the first is lower: 65 to 69 °C for the first, 215 to 217 °C for the second.

Compared with `O=C(NCC(F)(F)F)C1(CCCc2ccccc2)c2ccccc2-c2ccccc21`, `CNC(C)CCC1(C(N)=O)c2ccccc2-c2ccccc21` (stereo not drawn) is higher in melting point: 86 to 88 °C for the first, 178 to 180 °C for the second.

First: CC(C)C(C)C=CC(C)C1CCC2C3=CC=C4CC(O)C=CC4(C)C3CCC21C (stereo not drawn)
Second: CC(=O)OCC(=O)C1(O)CCC2C3CCC4=CC(=O)C=CC4(C)C3CCC21C (stereo not drawn)
The melting point of the first is lower: 156 to 157 °C for the first, 214 °C for the second.

First: CN1CC(CO)Cc2ccc(NC(=O)/C=C/c3ccc(C(F)(F)F)cc3)cc21 (stereo not drawn)
Second: COc1ccc(/C=C/C(=O)/C=C/c2ccc(OC(F)(F)F)cc2)cc1
The melting point of the first is higher: 167 to 169 °C for the first, 105 to 107 °C for the second.

First: FC(F)(F)c1cccc(N=c2ccn3ccccc3c2)c1
Second: Nc1ccc(S(=O)(=O)c2cc(-c3cccc(C(F)(F)F)c3)nc(N3CCCC3)c2)cc1
The melting point of the first is lower: 134 to 135 °C for the first, 219 to 220 °C for the second.

Compared with `CCCCOCCOc1ccc(-c2ccc(N3CCC(=O)C3)c(C=C(C)C(=O)OCC)c2)cc1`, `COc1ccc(C2=CCN(CCC(O)c3ccc(C#N)cc3)CC2)cc1` (stereo not drawn) is higher in melting point: 98.5 to 99 °C for the first, 144 to 145 °C for the second.

First: Cc1oc(-c2ccccc2)nc1COc1ccc(Cn2cc(CO)cn2)cc1
Second: Cc1oc(-c2ccc3ccccc3c2)nc1CCc1ccc(CCCC2OC(=O)NC2=O)cc1 (stereo not drawn)
The melting point of the first is lower: 100 to 101 °C for the first, 168 to 169 °C for the second.

Compared with `CCCC(=O)c1cnc2c(OC)cccc2c1Nc1ccc(OC(=O)C(C)C)cc1C`, `COC(=O)c1ccc(CBr)c(SC(=O)c2ccc(C(C)(C)C)cc2)c1` is higher in melting point: 123 to 125 °C for the first, 152 °C for the second.

First: CC(=O)NC[C@H]1CN(c2cccc(F)c2)C(=O)O1
Second: CC(=O)N1CCN(c2cccc(F)n2)CC1
The melting point of the first is higher: 140 °C for the first, 102 to 103 °C for the second.

First: N#Cc1cccc(C=Cc2ccc(Cl)c(Cl)c2)n1
Second: O=C1CN(c2ccc(Cl)cc2)C(=O)N1C(=O)c1c(Cl)cccc1Cl
The melting point of the first is lower: 124 to 125 °C for the first, 176 to 180 °C for the second.

Compared with `CON1C(=O)CC2(CCN(C(=O)OCc3ccccc3)CC2)C1=O`, `C[C@H](c1ccccc1)N1CC(=NO)C2(CCC2)C1=O` is higher in melting point: 98 °C for the first, 203 to 208 °C for the second.

Compared with `C[C@@H]1C(=O)N(CC(=O)CCc2ccccc2)[C@H]1SCc1ccccc1` (relative stereo), `CCN(CC)C(=O)C(C)N1C(=O)C(NC(=O)OCc2ccccc2)N=C(c2ccccc2)c2ccccc21` (stereo not drawn) is higher in melting point: 69 to 71 °C for the first, 170 to 171 °C for the second.

Compared with `CNC(=O)Oc1c(OC)cc(OC)c2ccccc12`, `CC(C)Oc1c(C(=O)NCc2ccccc2)oc2ccc(Cl)cc12` is lower in melting point: 131 to 133 °C for the first, 80 to 82 °C for the second.

First: CC(O)=C(C#N)C(=O)Nc1cccc(Cl)c1
Second: CC(C)(C)OC(=O)Nc1ccc(OCc2ccccc2)c(C(=O)O)c1
The melting point of the first is higher: 184 to 187 °C for the first, 136 to 139 °C for the second.

First: Cc1c(C(=O)N(C)c2ccccc2)nc2n1CCc1ccccc1C2OC1CCN(C)CC1 (stereo not drawn)
Second: O=S(=O)(c1ccccc1)N1CCCC1c1ccccc1 (racemic)
The melting point of the first is lower: 75 °C for the first, 116 °C for the second.

First: CCCn1c(=O)c2[nH]c(/C=C/c3cc(OC)c(OC)cc3Br)nc2n(CCC)c1=O
Second: COc1cc(NC(=S)C2(C)CCc3c(C)c(O)c(C)c(C)c3O2)cc(OC)c1OC (stereo not drawn)
The melting point of the first is higher: 248 to 250 °C for the first, 147 to 148 °C for the second.

First: CCOC(=O)c1ncsc1-c1cccc(I)c1
Second: CCc1nc(-c2ncn(-c3cccc(O)c3)c2C)no1
The melting point of the first is lower: 77 to 78 °C for the first, 226 to 227 °C for the second.

First: CC(C)(C)C(=O)Oc1ccc(CCNC(=O)c2cccnc2)cc1
Second: CCOC(=O)CSc1nc(Cl)cc(NCCc2ccc(Cl)cc2)n1
The melting point of the first is higher: 80 to 82 °C for the first, 68 to 70 °C for the second.

First: Cc1cc(-c2sc(N3CCN(Cc4ccc(F)cc4)C3=O)nc2C)n[nH]1
Second: Cc1csc(CNC(=O)c2sc(N3CCN(CC4CC4(F)F)C3=O)nc2C)n1 (stereo not drawn)
The melting point of the first is higher: 218 to 221 °C for the first, 157 to 159 °C for the second.

First: CCCCCCCCCCCCCCOCC(C)(O)CNCCO (stereo not drawn)
Second: CCCc1c(OCCCCCCCCCCC(=O)O)ccc(C(C)=O)c1O
The melting point of the first is lower: 49.1 to 50.2 °C for the first, 57 to 58 °C for the second.

Compared with `COc1ccc(CN(C)CCc2ccc(NC(=O)c3cccc4c(=O)c5c(OC)ccc(OC)c5[nH]c34)cc2)cc1OC`, `COc1ccc(-c2ccccc2-c2ccc(S(C)(=O)=O)cc2)cc1Cl` is lower in melting point: 196 °C for the first, 162 °C for the second.

First: CC(=O)NC1CCNC(c2ncccc2Cl)C1 (stereo not drawn)
Second: COC(=O)C1Cc2sc3c(c2C1)C(c1ccccc1Cl)=NCC(=O)N3 (stereo not drawn)
The melting point of the first is lower: 118 to 120 °C for the first, 178 to 181 °C for the second.

First: Cn1c(=N)c(C(=O)NCCN2CCOCC2)c(O)c2cc(Cl)ccc21
Second: CC(C)(C)c1ccc(C(=O)N[C@H]2CC[C@H](CCN3CCN(c4nccc5c4CCO5)CC3)CC2)cc1
The melting point of the first is higher: 211 to 213 °C for the first, 186 °C for the second.

First: Cc1[nH]c(=O)n(C)c1-c1cc(C(C)(C)C)c(O)c(C(C)(C)C)c1
Second: Cc1c(CN(C)C)cc(C(C)(C)C)c(O)c1C
The melting point of the first is higher: 285 to 286 °C for the first, 101 to 104 °C for the second.

First: CC(C)C(c1ccc2ncc(=O)[nH]c2c1)n1ccnc1 (stereo not drawn)
Second: C[Si](C)(C)C#Cc1ccc2c(c1)C(=O)N(c1ccc3c(c1)C=C3)C2=O
The melting point of the first is higher: 246 °C for the first, 192 to 193 °C for the second.

Compared with `CON=CCNC(=O)c1c(I)cccc1C(=O)Nc1ccc(C(F)(F)C(F)(F)F)cc1C`, `Cn1cc(C(=O)Nc2ccccc2-c2ccc(Br)cc2)c(C(F)(F)F)c1` is higher in melting point: 110 °C for the first, 163 to 164 °C for the second.

First: O=C(CCCCOc1ccccc1O)C(F)(F)F
Second: CCSc1cc(C(=O)O)cc(S(N)(=O)=O)c1Oc1ccccc1
The melting point of the first is lower: 51 to 52 °C for the first, 225 to 227 °C for the second.

Compared with `COC(=O)c1cc(-c2ccccc2)c(=O)n2c1-c1sccc1S(=O)(=O)C=C2`, `O=C(O)CN1C(=O)C(=Cc2c(-c3ccccc3)[nH]c3ccccc23)SC1=S` is higher in melting point: 241 to 243 °C for the first, 258 to 262 °C for the second.

Compared with `O=C(CCc1ccc(O)cc1)OCCC(c1ccccc1)(c1ccccc1)c1ccccc1`, `O=C(O)CCCn1c(=O)c2ccccc2n(CCCCN2CCC(OC(c3ccccc3)c3ccccc3)CC2)c1=O` is higher in melting point: 105 to 107 °C for the first, 132 to 133 °C for the second.

First: CCCN1C(=O)c2cscc2Nc2ccccc21
Second: CN(C)CCc1nnc2n1-c1ccc(Cl)cc1C(c1ccccc1Cl)=NC2
The melting point of the first is higher: 166 to 167 °C for the first, 150 to 153 °C for the second.

First: CC(C)C1C(=O)N(CSc2ccccc2)S(=O)(=O)N1C (stereo not drawn)
Second: CC(C)(C)OC(=O)N1CCN(CCSc2nc3ccccc3[nH]2)CC1
The melting point of the first is lower: 82 to 83 °C for the first, 175 to 176 °C for the second.

First: COC(=O)COc1c(I)cc(-c2c3ccccc3cc3sc4ccccc4c23)cc1I
Second: COc1ccc(C2(c3ccc(O)c(C)c3)c3ccccc3-c3ccccc32)cc1
The melting point of the first is higher: 203 to 205 °C for the first, 186 to 188 °C for the second.

Going from `CC(=O)OC1CSC(Oc2ccc(-c3cnccc3F)nc2-c2cnccc2F)C(OC(C)=O)C1OC(C)=O` (stereo not drawn) to `Cc1cccc(NC(=O)NC2N=C(C3CC3)c3cccc(C)c3N(CC(=O)C3CCCCC3)C2=O)c1` (stereo not drawn), the melting point falls from 169 °C to 144 °C.

First: COCCc1nc2c(N)nc3ccccc3c2n1CC(C)(C)CNS(C)(=O)=O
Second: CN(C)CCc1cccc(OCCNc2nc(N)nn2C)c1
The melting point of the first is higher: 204 to 206 °C for the first, 72 °C for the second.

First: O=[N+]([O-])c1ccc2nc(-c3cccs3)oc2c1
Second: CN(C)S(=O)(=O)n1cc(-c2ccccc2[N+](=O)[O-])nc1C#N
The melting point of the first is higher: 208 to 210 °C for the first, 111 to 114 °C for the second.

First: CON1C(C)(C)CC(O)CC1(C)C
Second: COc1ccc2c(c1)C(NC(=NC#N)SC)CCC2 (stereo not drawn)
The melting point of the first is lower: 92 to 93 °C for the first, 131 to 132 °C for the second.

Compared with `CC(C)(C)[Si](C)(C)Oc1cccc2[nH]ccc12`, `CCc1cccc(C)c1NC(=S)NC(C)(C)C` is higher in melting point: 80 to 81 °C for the first, 94 to 96 °C for the second.

Compared with `Cn1cncc1Cn1nnnc1-c1cccc(Cl)c1Cl`, `Cc1ccc(Cl)c(Nc2ccccc2-c2noc(=O)[nH]2)c1Cl` is higher in melting point: 166 to 168 °C for the first, 209 to 210 °C for the second.

Compared with `Sc1ccc2ccncc2c1Cl`, `Cn1nc(C(F)(F)F)cc1Oc1cccc(Cl)n1` is lower in melting point: 118 to 122 °C for the first, 56 to 58 °C for the second.

First: O=C(NC1CCN(Cc2ccccc2)CC1)c1c[nH]c2ccc(F)cc12
Second: O=NN(CC(=O)O)C([PH](=O)Oc1ccccc1)[PH](=O)Oc1ccccc1 (stereo not drawn)
The melting point of the first is higher: 215 to 217 °C for the first, 40 to 44 °C for the second.

First: COC(=O)c1cc(F)c([N+](=O)[O-])cc1NC(C)=O
Second: CN1CCN(c2ccc(Nc3ncc4ccc(-c5ccc(S(C)(=O)=O)cc5)n4n3)cc2)CC1
The melting point of the first is lower: 124 to 126 °C for the first, 234 to 238 °C for the second.
